Measurements: article PMC10859961, “Ir(III) Half-Sandwich Photosensitizers with a π-Expansive Ligand for Efficient Anticancer Photodynamic Therapy” (Journal of Medicinal Chemistry, 2024)
Where “and” joins values, the source holds several entries; their conditions need not be identical. Equal values may be shown once.

Tests used:
[1] = Stability and photostability studies by 1H NMR; format: physicochemical
Procedure: Solutions of complexes 1 and 6 at 3.2 mM and 2 at 0.6 mM in DMSO-d6 and DMSO-d6/D2O mixture (9:1, v/v) were prepared.

[2] = Reactivity of 1w with n-Bu4NCl (1H NMR); format: physicochemical; settings: 100 equivalents of n‐Bu4NCl
Procedure: A solution of 1w (3.0 mM) with 100 equiv of n-Bu4NCl (300 mM) in a DMSO-d6/D2O (9:1, v/v) mixture was monitored by NMR spectroscopy at room temperature and at 60 °C.

[3] = Stability in DMEM (UV-vis); format: physicochemical; settings: DMEM without phenol red; dark; 48 h
Procedure: The stability of the complexes in biological media was studied by UV–vis spectroscopy. Complexes 1 and 2 were dissolved in DMSO and complexes 3–8 were dissolved in MeOH at 1.0 × 10^–3 M and then diluted to 1.0 × 10^–5 M with Dulbecco’s modified Eagle’s medium (DMEM) without phenol red (Corning) (the final concentration of DMSO or MeOH was 1%). The solutions were studied in the dark and under blue light irradiation (470 nm).

A549 cells [4] = experiment: Intracellular ROS production (CM-H2DCFDA, flow cytometry); format: cell-based, human; settings: for elevation of ROS levels (median fluorescence): 10 nM, 4 h then blue light 1 h, vs untreated control; for increase in cellular ROS content: complexes at IC50,dark, 5 h, no irradiation
Procedure: A549 cells were seeded onto 24-well plates (5 × 10^4 cells/well) 24 h before the experiment. The cells were incubated for 4 h with complexes 2, 4, 6, and 8 at 10 nM and then photoactivated or kept in the dark for an additional hour. In addition, the cells were treated for 5 h with the complexes at the corresponding IC50,dark without irradiation. The cells exposed for 30 min to 0.5 μM FeCl2 and 0.04% H2O2, as ROS inducers, were used as positive control. After the treatments, the cells were washed with PBS and harvested by trypsinization. Intracellular ROS were detected by incubation with the chloromethyl 2′,7′-dichlorodihydrofluorescein diacetate (CM-H2DCFDA; Invitrogen) probe at 2.5 μM for 30 min at 37 °C. After washing with PBS, the median fluorescence of 1 × 10^4 cells was measured with a NovoCyte flow cytometer (Agilent Technologies) equipped with the NovoExpress software. The fold increase versus control untreated cells was determined for each treatment in three independent experiments.

A549 cells [5] = experiment: Mitochondrial membrane potential (JC-1, flow cytometry); format: cell-based, human; settings: 10 nM, blue light 1 h
Procedure: A549 cells were seeded onto 24-well plates. 24 h later, cells were incubated for 4 h with complexes 2, 4, 6, and 8 at 10 nM and then photoactivated or kept in the dark for an additional hour. Next, the cells were washed with PBS and harvested by trypsinization. Mitochondrial membrane potential changes were immediately measured by the JC-1 (5,5′,6,6′-tetrachloro-1,1′,3,3′-tetraethylbenzimidazolocarbo-cyanine iodide) Mitochondrial Membrane Potential Detection Kit (Biotium), according to the manufacturer’s instructions. As positive control, the cells were coincubated with CCCP (Sigma) at 5 μM for 30 min to disrupt the mitochondrial membrane potential. For each treatment, the fluorescence of 1 × 10^4 cells was analyzed by a Novocyte flow cytometer. JC-1 red aggregates were detected at a wavelength of 590 nm (FL2) and JC-1 green monomers at 529 nm (FL1).

[6] = pKa determination (absorbance vs pH); format: physicochemical; settings: DMSO/H2O (2/98, v/v), Bu4NBF4 5 mM; piperidine ring
Procedure: Solutions of complexes 5 and 6 (2.00 × 10^–5 M) and Imepip ligand (2.00 × 10^–3 M) in H2O/DMSO (98/2, v/v) mixture with n-Bu4NBF4 (5 mM) were prepared. The presence of the salt ensured the conductivity of the media. Evolution of the peaks was studied at different pH by recording the absorbance spectrum. Aliquots of 10 μL of HCl (0.002–0.020 M) or NaOH (0.002–0.020 M) were added to a solution of 2.4 mL of complex to vary the pH. The absorbance versus pH plot enables us to determine one constant according to the equation from the Wilson and Lester method (eq 2):[146] [drawing 23] 2 where Aa is the absorbance for the acid species, Ab is the absorbance for the basic species, and Am is the absorbance of the mixture. The intersection obtained by representing log(Am – Aa)/(Ab – Am) versus pH provides the pKa.

A549 cells [7] = experiment: Subcellular distribution (cell fractionation, ICP-MS); format: cell-based, human; settings: 10 μM, 4 h, 37 °C
Procedure: The intracellular distribution of complex 6 was explored by measuring the iridium content in different cellular compartments: nucleus, membrane/particulate (which includes cellular organelles and organelle’s membrane proteins), cytosol, and cytoskeleton. To this end, 8 × 10^6 A549 cells were incubated with 6 at 10 μM for 4 h in the dark at 37 °C. Then, the cells were washed twice with PBS, detached with trypsin, and centrifuged to obtain the whole cell pellet. The viability of the cells was assessed through Trypan blue staining, which confirmed that over 95% of the cells were viable. The different cell fractions were then isolated using the FractionPREP Cell Fractionation kit (BioVision) and the total iridium content in each fraction was measured by ICP-MS in two independent experiments, as described above.

A549 cells [8] = experiment: Cell death mechanism (Annexin V-FITC / propidium iodide); format: cell-based, human; settings: photoactivated
Procedure: The cell death mechanism was analyzed with the Vybrant Apoptosis Assay Kit (Molecular Probes). A549 cells seeded in 12-well plates at a density of 1 × 10^5 cells per well were treated with complex 6 at the corresponding IC50,light × 5 under photoactivation conditions. Cisplatin at 50 μM was used as positive control. 4 and 20 h after the irradiation, cells were collected by trypsinization and immediately stained with Annexin V-FITC and propidium iodide according to the manufacturer’s instructions. The median fluorescence of 10,000 cells of each sample was analyzed by flow cytometry. Annexin-FITC staining was detected at a wavelength of 520 nm (FL1) and propidium iodide was detected at 617 nm (FL2).

Structure (SMILES): Cc1c(C)c(C)[c-](C)c1C.[Cl][Ir]1[c]2cccc3c4nc5ccccc5nc4c4ccc[n+]1c4c23 [complex 1, [(η^5-C5Me5)IrCl(pbpz)]]
- Percentage of species (chlorido complex remaining / aqua adduct formed), 1H NMR ([1]; DMSO‐d6, dark, 0 h): 100%
- Percentage of species (chlorido complex remaining / aqua adduct formed), 1H NMR ([1]; DMSO‐d6, dark, 0.5 h): 78%
- Percentage of species (chlorido complex remaining / aqua adduct formed), 1H NMR ([1]; DMSO‐d6, dark, 1 h): 76%
- Percentage of species (chlorido complex remaining / aqua adduct formed), 1H NMR ([1]; DMSO‐d6, dark, 1.5 h): 75%
- Percentage of species (chlorido complex remaining / aqua adduct formed), 1H NMR ([1]; DMSO‐d6, dark, 2.5 h): 72%
- Percentage of species (chlorido complex remaining / aqua adduct formed), 1H NMR ([1]; DMSO‐d6, dark, 4.5 h): 71%
- Percentage of species (chlorido complex remaining / aqua adduct formed), 1H NMR ([1]; DMSO‐d6, dark, 6 h): 70%
- Percentage of species (chlorido complex remaining / aqua adduct formed), 1H NMR ([1]; DMSO‐d6, dark, 8 h): 69%
- Percentage of species (chlorido complex remaining / aqua adduct formed), 1H NMR ([1]; DMSO‐d6, dark, 10 h): 68%
- Percentage of species (chlorido complex remaining / aqua adduct formed), 1H NMR ([1]; DMSO‐d6, dark, 32 h): 57%
- Percentage of species (chlorido complex remaining / aqua adduct formed), 1H NMR ([1]; DMSO‐d6, dark, 50 h): 49%
- Percentage of species (chlorido complex remaining / aqua adduct formed), 1H NMR ([1]; DMSO‐d6, dark, 70 h): 40%
- Percentage of species (chlorido complex remaining / aqua adduct formed), 1H NMR ([1]; DMSO‐d6, dark, 97 h): 35%
- Percentage of species (chlorido complex remaining / aqua adduct formed), 1H NMR ([1]; DMSO‐d6/D2O (9/1), dark, 0 h): 100%
- Percentage of species (chlorido complex remaining / aqua adduct formed), 1H NMR ([1]; DMSO‐d6/D2O (9/1), dark, 0.5 h): 4%
- Percentage of species (chlorido complex remaining / aqua adduct formed), 1H NMR ([1]; DMSO‐d6/D2O (9/1), dark, 1 h): 0.5%
- Percentage of species (chlorido complex remaining / aqua adduct formed), 1H NMR ([1]; DMSO‐d6/D2O (9/1), dark, 1.5 h): 0%
- Percentage of species (chlorido complex remaining / aqua adduct formed), 1H NMR ([1]; DMSO‐d6/D2O (9/1), dark, 2.5 h): 0%
- Percentage of species (chlorido complex remaining / aqua adduct formed), 1H NMR ([1]; DMSO‐d6/D2O (9/1), dark, 4.5 h): 0%
- Percentage of species (chlorido complex remaining / aqua adduct formed), 1H NMR ([1]; DMSO‐d6/D2O (9/1), dark, 6 h): 0%
- Percentage of species (chlorido complex remaining / aqua adduct formed), 1H NMR ([1]; DMSO‐d6/D2O (9/1), dark, 8 h): 0%
- Percentage of species (chlorido complex remaining / aqua adduct formed), 1H NMR ([1]; DMSO‐d6/D2O (9/1), dark, 10 h): 0%
- Percentage of species (chlorido complex remaining / aqua adduct formed), 1H NMR ([1]; DMSO‐d6/D2O (9/1), dark, 32 h): 0%
- Percentage of species (chlorido complex remaining / aqua adduct formed), 1H NMR ([1]; DMSO‐d6/D2O (9/1), dark, 50 h): 0%
- Percentage of species (chlorido complex remaining / aqua adduct formed), 1H NMR ([1]; DMSO‐d6/D2O (9/1), dark, 70 h): 0%
- Percentage of species (chlorido complex remaining / aqua adduct formed), 1H NMR ([1]; DMSO‐d6/D2O (9/1), dark, 97 h): 0%
- chloride complex 1 formed back from 1w ([2]; 60 °C, 15 minutes): approximately 15%
- chloride complex 1 formed back from 1w ([2]; room temperature, 4 days): 2%
- stability in DMEM (UV–vis changes) [3]: minor change

Structure (SMILES): Cc1c(C)c(C)[c-](C)c1C.F[B-](F)(F)F.c1ccc2cc3nc4c5ccc[n+]6c5c5[c](cccc5c4nc3cc2c1)[Ir]6[n+]1cc[nH]c1 [complex 4, [(η^5-C5Me5)Ir(Im)(pbpn)]BF4]
- elevation of ROS levels (median fluorescence) (A549 cells [4]): 2.2 fold
- increase in cellular ROS content (A549 cells [4]): 2.8 fold
- cells with red fluorescence (JC-1 aggregates), upper right quadrant (A549 cells [5]): 34.3%

Structure (SMILES): Cc1c(C)c(C)[c-](C)c1C.F[B-](F)(F)F.c1ccc2nc3c4ccc[n+]5c4c4[c](cccc4c3nc2c1)[Ir]5[n+]1ccn(CCN2CCCCC2)c1 [complex 5, [(η^5-C5Me5)Ir(Imepip)(pbpz)]BF4]
- pKa [6]: 7.2 and 7.19

Structure (SMILES): Cc1c(C)c(C)[c-](C)c1C.F[B-](F)(F)F.c1ccc2cc3nc4c5ccc[n+]6c5c5[c](cccc5c4nc3cc2c1)[Ir]6[n+]1ccn(CCN2CCCCC2)c1 [complex 6, [(η^5-C5Me5) Ir(Imepip)(pbpn)]BF4]
- elevation of ROS levels (median fluorescence) (A549 cells [4]): 2.4 fold
- increase in cellular ROS content (A549 cells [4]): 2.6 fold
- iridium in cytoskeletal fraction (A549 cells [7]): 11.0 ± 4 ng Ir/10^6 cells
- iridium in cytosolic fraction (A549 cells [7]): 4.6 ± 2 ng Ir/10^6 cells
- iridium in membrane/organelles fraction (A549 cells [7]): 140.8 ± 20 ng Ir/10^6 cells
- iridium in nuclear fraction (A549 cells [7]): 7.1 ± 4 ng Ir/10^6 cells
- cells with red fluorescence (JC-1 aggregates), upper right quadrant (A549 cells [5]): 16.9%
- cells in early apoptosis (AN+; IP−), lower right quadrant (A549 cells [8]; IC50,light × 5, 4 h): 1.7%
- cells in late apoptosis (AN+; IP+), upper right quadrant (A549 cells [8]; IC50,light × 5, 4 h): 15.8%
- cells in necrosis (AN–; IP+), upper left quadrant (A549 cells [8]; IC50,light × 5, 4 h): 6.4%
- cells in late apoptosis (AN+; IP+), upper right quadrant (A549 cells [8]; IC50,light × 5, 20 h): 43.2%
- cells in necrosis (AN–; IP+), upper left quadrant (A549 cells [8]; IC50,light × 5, 20 h): 10.4%
- pKa [6]: 7.8 and 7.85
- release of the N-donor ligand (1H NMR) ([1]; DMSO-d6/D2O (9/1), dark or blue, green or red light irradiation): not observed

Structure (SMILES): Cc1c(C)c(C)[c-](C)c1C.F[B-](F)(F)F.c1ccc(Cn2cc[n+]([Ir]3[c]4cccc5c6nc7cc8ccccc8cc7nc6c6ccc[n+]3c6c45)c2)cc1 [complex 8, [(η^5-C5Me5)Ir(bzIm)(pbpn)]BF4]
- elevation of ROS levels (median fluorescence) (A549 cells [4]): 5.6 fold
- increase in cellular ROS content (A549 cells [4]): 1.7 fold
- cells with red fluorescence (JC-1 aggregates), upper right quadrant (A549 cells [5]): 6.6%
